Laboratory results taken from patent US9062071B2, “Substituted piperidines as HDM2 inhibitors” (Merck Sharp & Dohme Corp, priority 2011, dated 2015).
pIC50: −log10 of the molar value.

Biological target: HDM2 protein (Homo sapiens, UniProt Q00987)
Assay: fluorescence polarization screening assay (FP IC50)
Type: binding
Conditions: class symbols
Description: The compounds were evaluated to determine activity at the HDM2 protein by known methods such as the fluorescence polarization screening assay that measures the inhibitory concentration that achieves 50% of maximal activity (FP IC50) and the dissociation constant for inhibitor binding (FP Ki). [Zhang et al., J. Analytical Biochemistry 331: 138-146 (2004)].

Sequence of HDM2 protein (Q00987 whole entry): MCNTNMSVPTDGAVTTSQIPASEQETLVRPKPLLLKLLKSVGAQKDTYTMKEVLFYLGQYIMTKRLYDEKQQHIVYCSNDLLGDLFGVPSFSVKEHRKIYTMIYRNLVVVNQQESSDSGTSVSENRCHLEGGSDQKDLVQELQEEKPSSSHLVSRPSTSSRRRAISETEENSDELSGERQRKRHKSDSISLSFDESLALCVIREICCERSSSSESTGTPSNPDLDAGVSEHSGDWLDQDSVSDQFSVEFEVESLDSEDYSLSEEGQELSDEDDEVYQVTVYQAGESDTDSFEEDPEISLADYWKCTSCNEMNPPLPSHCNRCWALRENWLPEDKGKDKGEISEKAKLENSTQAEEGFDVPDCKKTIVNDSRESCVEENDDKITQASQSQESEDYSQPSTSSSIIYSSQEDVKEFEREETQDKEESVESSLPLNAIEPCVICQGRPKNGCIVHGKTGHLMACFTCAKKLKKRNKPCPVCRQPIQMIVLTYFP

`CCC[C@H]1N(C(=O)c2ncccc2C(F)(F)F)CCC[C@@]1(Oc1csc(C(F)(F)F)c1)C(=O)N1CCc2sc(Cl)cc2C1C(=O)O` (stereo partly drawn) [Compound A14, 2-chloro-5-{[(2R,3S)-2-propyl-1-{[3-(trifluoromethyl)pyridin-2-yl]carbonyl}-3-{[5-(trifluoromethyl)thiophen-3-yl]oxy}piperidin-3-yl]carbonyl}-4,5,6,7-tetrahydrothieno[3,2-c]pyridine-4-carboxylic acid] and `CCC[C@H]1N(C(=O)c2ncccc2C(F)(F)F)CCC[C@@]1(Oc1csc(C(F)(F)F)c1)C(=O)N1CCc2sc(Cl)cc2C1CCC(=O)O` (stereo partly drawn) [Compound A23, 3-(2-chloro-5-{[(2R,3S)-2-propyl-1-{[3-(trifluoromethyl)pyridin-2-yl]carbonyl}-3-{[5-(trifluoromethyl)thiophen-3-yl]oxy}piperidin-3-yl]carbonyl}-4,5,6,7-tetrahydrothieno[3,2-c]pyridin-4-yl)propanoic acid] fall in the same range of pIC50: 7.00 to 9.00 for the first, 7.00 to 9.00 for the second.

Compared with `CCC[C@H]1N(C(=O)c2ncccc2C(F)(F)F)CCC[C@@]1(Oc1csc(C(F)(F)F)c1)C(=O)N1CCc2cc(Cl)ccc2C1CN1CCCC1` (stereo partly drawn) [Compound A15, 6-chloro-2-{[(2R,3S)-2-propyl-1-{[3-(trifluoromethyl)pyridin-2-yl]carbonyl}-3-{[5-(trifluoromethyl)thiophen-3-yl]oxy}piperidin-3-yl]carbonyl}-1-(pyrrolidin-1-ylmethyl)-1,2,3,4-tetrahydroisoquinoline], `COCC1c2ccc(Cl)cc2CCN1C(=O)[C@]1(Oc2csc(C(F)(F)F)c2)CCCN(C(=O)c2ncccc2C(F)(F)F)[C@@H]1CCN1CCCC1` (stereo partly drawn) [Compound A16, 6-chloro-1-(methoxymethyl)-2-{[(2R,3S)-2-(2-pyrrolidin-1-ylethyl)-1-{[3-(trifluoromethyl)pyridin-2-yl]carbonyl}-3-{[5-(trifluoromethyl)thiophen-3-yl]oxy}piperidin-3-yl]carbonyl}-1,2,3,4-tetrahydroisoquinoline] is higher in pIC50: 4.70 to 7.00 for the first, 7.00 to 9.00 for the second.

`COCC1c2ccc(Cl)cc2CCN1C(=O)[C@]1(Oc2csc(C(F)(F)F)c2)CCCN(C(=O)c2ncccc2C(F)(F)F)[C@@H]1CCN1CCOCC1` (stereo partly drawn) [Compound A17, 6-chloro-1-(methoxymethyl)-2-{[(2R,3S)-2-(2-morpholin-4-ylethyl)-1-{[3-(trifluoromethyl)pyridin-2-yl]carbonyl}-3-{[5-(trifluoromethyl)thiophen-3-yl]oxy}piperidin-3-yl]carbonyl}-1,2,3,4-tetrahydroisoquinoline] and `COCC1c2ccc(Cl)cc2CCN1C(=O)[C@]1(Oc2csc(C(F)(F)F)c2)CCCN(C(=O)c2ncccc2C(F)(F)F)[C@@H]1CCN1CCC(CCO)CC1` (stereo partly drawn) [Compound A20, 2-(1-{2-[(2R,3S)-3-{[6-chloro-1-(methoxymethyl)-3,4-dihydroisoquinolin-2(1H)-yl]carbonyl}-1-{[3-(trifluoromethyl)pyridin-2-yl]carbonyl}-3-{[5-(trifluoromethyl)thiophen-3-yl]oxy}piperidin-2-yl]ethyl}piperidin-4-yl)ethanol] fall in the same range of pIC50: 7.00 to 9.00 for the first, 7.00 to 9.00 for the second.

`COCC1c2ccc(Cl)cc2CCN1C(=O)[C@]1(Oc2csc(C(F)(F)F)c2)CCCN(C(=O)c2ncccc2C(F)(F)F)[C@@H]1CC(=O)O` (stereo partly drawn) [Compound A18, [(2R,3S)-3-{[6-chloro-1-(methoxymethyl)-3,4-dihydroisoquinolin-2(1H)-yl]carbonyl}-1-{[3-(trifluoromethyl)pyridin-2-yl]carbonyl}-3-{[5-(trifluoromethyl)thiophen-3-yl]oxy}piperidin-2-yl]acetic acid] and `COCC1c2ccc(Cl)cc2CCN1C(=O)[C@]1(Oc2csc(C(F)(F)F)c2)CCCN(C(=O)c2ncccc2C(F)(F)F)[C@@H]1CCNC1CCOCC1` (stereo partly drawn) [Compound A22, N-{2-[(2R,3S)-3-{[6-chloro-1-(methoxymethyl)-3,4-dihydroisoquinolin-2(1H)-yl]carbonyl}-1-{[3-(trifluoromethyl)pyridin-2-yl]carbonyl}-3-{[5-(trifluoromethyl)thiophen-3-yl]oxy}piperidin-2-yl]ethyl}tetrahydro-2H-pyran-4-amine] fall in the same range of pIC50: 7.00 to 9.00 for the first, 7.00 to 9.00 for the second.

`CCC[C@H]1N(C(=O)c2ncccc2C(F)(F)F)CCC[C@@]1(Oc1csc(C(F)(F)F)c1)C(=O)N1CCc2cc(Cl)sc2C1C(=O)O` (stereo partly drawn) [Compound A19, 2-chloro-6-{[(2R,3S)-2-propyl-1-{[3-(trifluoromethyl)pyridin-2-yl]carbonyl}-3-{[5-(trifluoromethyl)thiophen-3-yl]oxy}piperidin-3-yl]carbonyl}-4,5,6,7-tetrahydrothieno[2,3-c]pyridine-7-carboxylic acid] and `CCC[C@H]1N(C(=O)c2ncccc2C(F)(F)F)CCC[C@@]1(Oc1csc(C(F)(F)F)c1)C(=O)N1CCc2cc(Cl)sc2C1CC(C)(C)C(=O)O` (stereo partly drawn) [Compound A31, 3-(2-chloro-6-{[(2R,3S)-2-propyl-1-{[3-(trifluoromethyl)pyridin-2-yl]carbonyl}-3-{[5-(trifluoromethyl)thiophen-3-yl]oxy}piperidin-3-yl]carbonyl}-4,5,6,7-tetrahydrothieno[2,3-c]pyridin-7-yl)-2,2-dimethylpropanoic acid] fall in the same range of pIC50: 7.00 to 9.00 for the first, 7.00 to 9.00 for the second.

First: COCCN1CCN(CC[C@H]2N(C(=O)c3ncccc3C(F)(F)F)CCC[C@@]2(Oc2csc(C(F)(F)F)c2)C(=O)N2CCc3cc(Cl)ccc3C2COC)CC1 (stereo partly drawn) [Compound A21, 6-chloro-2-{[(2R,3S)-2-{2-[4-(2-methoxyethyl)piperazin-1-yl]ethyl}-1-{[3-(trifluoromethyl)pyridin-2-yl]carbonyl}-3-{[5-(trifluoromethyl)thiophen-3-yl]oxy}piperidin-3-yl]carbonyl}-1-(methoxymethyl)-1,2,3,4-tetrahydroisoquinoline]
Second: CCC[C@H]1N(C(=O)c2ncccc2C(F)(F)F)CCC[C@@]1(Oc1csc(C(F)(F)F)c1)C(=O)N1CCc2sc(Cl)cc2C1CCCN1CCOCC1 (stereo partly drawn) [Compound A32, 2-chloro-4-(3-morpholin-4-ylpropyl)-5-{[(2R,3S)-2-propyl-1-{[3-(trifluoromethyl)pyridin-2-yl]carbonyl}-3-{[5-(trifluoromethyl)thiophen-3-yl]oxy}piperidin-3-yl]carbonyl}-4,5,6,7-tetrahydrothieno[3,2-c]pyridine]
The pIC50 of the first is higher: 7.00 to 9.00 for the first, 4.70 to 7.00 for the second.

`CCC[C@H]1N(C(=O)c2ncccc2C(F)(F)F)CCC[C@@]1(Oc1csc(C(F)(F)F)c1)C(=O)N1CCc2sc(Cl)cc2C1CCC(N)=O` (stereo partly drawn) [Compound A24, 3-(2-chloro-5-{[(2R,3S)-2-propyl-1-{[3-(trifluoromethyl)pyridin-2-yl]carbonyl}-3-{[5-(trifluoromethyl)thiophen-3-yl]oxy}piperidin-3-yl]carbonyl}-4,5,6,7-tetrahydrothieno[3,2-c]pyridin-4-yl]propanamide] and `CCC[C@H]1N(C(=O)c2ncccc2C(F)(F)F)CCC[C@@]1(Oc1csc(C(F)(F)F)c1)C(=O)N1CCc2sc(Cl)cc2C1CCC(=O)NC` (stereo partly drawn) [Compound A27, 3-(2-chloro-5-{[(2R,3S)-2-propyl-1-{[3-(trifluoromethyl)pyridin-2-yl]carbonyl}-3-{[5-(trifluoromethyl)thiophen-3-yl]oxy}piperidin-3-yl]carbonyl}-4,5,6,7-tetrahydrothieno[3,2-c]pyridin-4-yl)-N-methylpropanamide] fall in the same range of pIC50: 4.70 to 7.00 for the first, 4.70 to 7.00 for the second.

`CCC[C@H]1N(C(=O)c2ncccc2C(F)(F)F)CCC[C@@]1(Oc1csc(C(F)(F)F)c1)C(=O)N1CCc2sc(Cl)cc2C1CC(C)(C)C(=O)O` (stereo partly drawn) [Compound A25, 3-(2-chloro-5-{[(2R,3S)-2-propyl-1-{[3-(trifluoromethyl)pyridin-2-yl]carbonyl}-3-{[5-(trifluoromethyl)thiophen-3-yl]oxy}piperidin-3-yl]carbonyl}-4,5,6,7-tetrahydrothieno[3,2-c]pyridin-4-yl)-2,2-dimethylpropanoic acid] and `CCC[C@H]1N(C(=O)c2ncccc2C(F)(F)F)CCC[C@@]1(Oc1csc(C(F)(F)F)c1)C(=O)N1CCc2ccsc2C1CC(C)(C)C(=O)O` (stereo partly drawn) [Compound A29, 2,2-dimethyl-3-(6-{[(2R,3S)-2-propyl-1-{[3-(trifluoromethyl)pyridin-2-yl]carbonyl}-3-{[5-(trifluoromethyl)thiophen-3-yl]oxy}piperidin-3-yl]carbonyl}-4,5,6,7-tetrahydrothieno[2,3-c]pyridin-7-yl)propanoic acid] fall in the same range of pIC50: 7.00 to 9.00 for the first, 7.00 to 9.00 for the second.

First: CCC[C@H]1N(C(=O)c2ncccc2C(F)(F)F)CCC[C@@]1(Oc1csc(C(F)(F)F)c1)C(=O)N1CCc2sc(Cl)cc2C1CC(C)(C)C(=O)O (stereo partly drawn) [Compound A26, 3-(2-chloro-5-{[(2R,3S)-2-propyl-1-{[3-(trifluoromethyl)pyridin-2-yl]carbonyl}-3-{[5-(trifluoromethyl)thiophen-3-yl]oxy}piperidin-3-yl]carbonyl}-4,5,6,7-tetrahydrothieno[3,2-c]pyridin-4-yl)-2,2-dimethylpropanoic acid]
Second: CCC[C@H]1N(C(=O)c2ncccc2C(F)(F)F)CCC[C@@]1(Oc1csc(C(F)(F)F)c1)C(=O)N1CCc2ccsc2C1CC(C)(C)C(=O)OCC (stereo partly drawn) [Compound A28, ethyl 2,2-dimethyl-3-(6-{[(2R,3S)-2-propyl-1-{[3-(trifluoromethyl)pyridin-2-yl]carbonyl}-3-{[5-(trifluoromethyl)thiophen-3-yl]oxy}piperidin-3-yl]carbonyl}-4,5,6,7-tetrahydrothieno[2,3-c]pyridin-7-yl)propanoate]
The pIC50 of the first is higher: 7.00 to 9.00 for the first, 4.70 to 7.00 for the second.

`CCC[C@H]1N(C(=O)c2ncccc2C(F)(F)F)CCC[C@@]1(Oc1csc(C(F)(F)F)c1)C(=O)N1CCc2ccsc2C1CC(C)(C)C(=O)NCc1nnn[nH]1` (stereo partly drawn) [Compound A30, 2,2-dimethyl-3-(6-{[(2R,3S)-2-propyl-1-{[3-(trifluoromethyl)pyridin-2-yl]carbonyl}-3-{[5-(trifluoromethyl)thiophen-3-yl]oxy}piperidin-3-yl]carbonyl}-4,5,6,7-tetrahydrothieno[2,3-c]pyridin-7-yl)-N-(1H-tetrazol-5-ylmethyl)propanamide] gave a pIC50 of 7.00 to 9.00.
